Measurements as given in ChEMBL document CHEMBL1148558, “Optimization of CCR4 antagonists: side-chain exploration” (Bioorg Med Chem Lett, 2006).
pIC50: −log10 of the molar value.

Test system: Mus musculus
Assay: In vivo efficacy against allergic lung inflammation in BABL/c mice administered sc
Format: functional
Settings: not given

SMILES | ED50
O=C([C@H]1CCCCN1)N1CCN(c2nccc(NCc3ccc(Cl)cc3Cl)n2)CC1 | 30 mg/kg

Target: T1, C-C chemokine receptor type 4 (Homo sapiens, UniProt P51679)
T1 sequence (P51679 whole entry): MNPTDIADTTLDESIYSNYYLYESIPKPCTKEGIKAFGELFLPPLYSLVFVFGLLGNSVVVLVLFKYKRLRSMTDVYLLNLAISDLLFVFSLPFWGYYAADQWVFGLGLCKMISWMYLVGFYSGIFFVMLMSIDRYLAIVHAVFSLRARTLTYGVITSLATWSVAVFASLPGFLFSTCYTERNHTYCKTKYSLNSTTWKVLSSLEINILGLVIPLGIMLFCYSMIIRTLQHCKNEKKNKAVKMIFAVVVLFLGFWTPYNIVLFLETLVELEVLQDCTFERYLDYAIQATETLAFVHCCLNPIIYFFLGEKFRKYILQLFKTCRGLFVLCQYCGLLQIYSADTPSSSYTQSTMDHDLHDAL
Assay: Calcium mobilization mediated by CCR4 receptor in CEMS529 cells by FLIPR
Format: functional, cell-based
Settings: not given

pIC50 | SMILES
8.00 | O=C([C@H]1CCCCN1)N1CCN(c2nccc(NCc3ccc(Cl)cc3Cl)n2)CC1

Test system: L1.2
Assay: Cytotoxicity against CCR4 transfected L1.2 cells (murine pre-B cells)
Format: functional, cell-based
Settings: Mus musculus

SMILES | pIC50
O=C([C@H]1CCCCN1)N1CCN(c2nccc(NCc3ccc(Cl)cc3Cl)n2)CC1 | < 4.00

Target: T1, C-C chemokine receptor type 4
Assay: Displacement of [125I]TARC from human CCR4 receptor transfected in HEK293 cells
Format: cell-based
Settings: not given

SMILES | pIC50
CN1CCCC(C(=O)NCCNc2nccc(OCc3ccc(Cl)cc3Cl)n2)C1 (stereo not drawn) | < 5.00
CN1CCCC(C(=O)NCCCNc2nccc(OCc3ccc(Cl)cc3Cl)n2)C1 (stereo not drawn) | < 5.00
CN1CCCC(C(=O)N2CCN(c3nccc(NCc4ccc(Cl)cc4Cl)n3)CC2)C1 (stereo not drawn) | 6.15
O=C(Cc1cccnc1)N1CCN(c2nccc(OCc3ccc(Cl)cc3Cl)n2)CC1 | < 5.00
O=C(c1cccnc1)N1CCN(c2nccc(OCc3ccc(Cl)cc3Cl)n2)CC1 | < 5.00
O=C(C1CCCNC1)N1CCN(c2nccc(NCc3ccc(Cl)cc3Cl)n2)CC1 (stereo not drawn) | 6.10
O=C(C1CNC1)N1CCN(c2nccc(NCc3ccc(Cl)cc3Cl)n2)CC1 | < 5.00
O=C([C@H]1CCCCN1)N1CCN(c2nccc(NCc3ccc(Cl)cc3Cl)n2)CC1 | 7.30
CN1CCCC(C(=O)N2CCN(c3nccc(OCc4ccc(Cl)cc4Cl)n3)CC2)C1 (stereo not drawn) | 5.92

Other lines, results leading:

pIC50 | SMILES
< 5.00 | Cn1cnc(CC(=O)N2CCN(c3nccc(OCc4ccc(Cl)cc4Cl)n3)CC2)c1
< 5.00 | O=C(C1CCNCC1)N1CCN(c2nccc(NCc3ccc(Cl)cc3Cl)n2)CC1
7.22 | O=C([C@H]1CCCN1)N1CCN(c2nccc(NCc3ccc(Cl)cc3Cl)n2)CC1
5.25 | CC(C)[C@@H](CNc1nccc(OCc2ccc(Cl)cc2Cl)n1)NC(=O)C1CCCN(C)C1 (stereo partly drawn)
6.00 | O=C([C@@H]1CCCCN1)N1CCN(c2nccc(NCc3ccc(Cl)cc3Cl)n2)CC1
6.52 | CN1CCCC(C(=O)N2CCN(c3ccnc(NCc4ccc(Cl)cc4Cl)n3)CC2)C1 (stereo not drawn)
